Target: T1, Prostaglandin E synthase (Homo sapiens, UniProt O14684)
T1 sequence (O14684 whole entry): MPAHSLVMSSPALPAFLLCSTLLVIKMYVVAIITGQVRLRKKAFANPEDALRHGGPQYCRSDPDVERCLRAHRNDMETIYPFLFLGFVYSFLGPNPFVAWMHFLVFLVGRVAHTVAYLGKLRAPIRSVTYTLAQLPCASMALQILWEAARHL
Test: Inhibition of mPGES-1 in interleukin-1beta-stimulated human A549 cells microsomal membranes assessed as reduction in PGE2 formation incubated for 15 mins in presence of PGH2 and glutathione by RP-HPLC method
Assay type: cell-based

Compound	IC50
CC1=C(C(=O)c2cc(Br)ccc2O)C(c2ccc(-c3cccc(C(F)(F)F)c3)o2)NC(=O)N1 (stereo not drawn)	5.6 µM
CC1=C(C(=O)OCc2ccccc2)C(c2ccc(-c3cccc(C(F)(F)F)c3)o2)NC(=O)N1CCC(=O)O (stereo not drawn)	0.41 µM
CC1=C(C(=O)OCc2ccccc2)C(c2ccc(-c3cccc(C(F)(F)F)c3)o2)NC(=O)N1 (stereo not drawn)	1.4 µM

— ChEMBL document CHEMBL3393013, “Structural Insights for the Optimization of Dihydropyrimidin-2(1H)-one Based mPGES-1 Inhibitors” (ACS Med Chem Lett, 2015)
